Source: article PMC8954350, “Non-Canonical Cannabinoid Receptors with Distinct Binding and Signaling Properties in Prostate and Other Cancer Cell Types Mediate Cell Death” (International Journal of Molecular Sciences, 2022)
“Also recorded” adds a separate entry of the source. Like-named read-outs stand apart in the source and are kept apart here.

Columns and labels:
[1] = test system: CBRs expressed in DU-145 membranes; type: binding, human
Method: (§1) The assay was conducted as previously detailed. […] All binding reactions were conducted in triplicate, in a final volume of 1 mL, and, following mixing, were incubated for 20 min in a 37 °C water bath to achieve equilibrium. After incubation, reactions were terminated by rapid vacuum filtration through Whatman GF/B glass fiber filters (Brandel; Gaithersburg, MD, USA), followed by three washes of 4 mls of ice-cold filtration buffer (50 mM Tris, pH 7.4, and 0.05% bovine serum albumin). Samples were punched out from filter papers into scintillation vials, to which 4 mls of ScintiverseTM-BDR cocktail scintillation fluid (Fisher Scientific; Hampton, NH, USA) was added. Filters were incubated at room temperature for 24 h in scintillation fluid, vortexed, and radioactivity (measured as DPMs) was quantified via a liquid scintillation spectrophotometer (Tri Carb 2100 TR Liquid Scintillation Analyzer, Packard Instruments, Meriden, CT, USA).
(§2) These experiments were conducted to screen well-characterized cannabinoid ligands with high affinity for canonical CB1 and/or CB2Rs for binding to CBRs expressed in prostate cancer cells lines, as detailed in [33]. […] All binding reactions were conducted in triplicate, in a final volume of 1 mL, and, following mixing, were incubated for 20 min in a 37 °C water bath to achieve equilibrium. After incubation, reactions were terminated by rapid vacuum filtration and processed for radioactivity, as detailed in Section 4.5.1.

[2] = test system: CBRs expressed in PC-3 membranes; experiment: [^3H]WIN-55,212-2 competitive binding screen, PC-3 membranes; parameters: species or system human
Method: as §1, §2

[3] = test system: CBRs expressed in DU-145 membranes; type: biochemical, human; conditions: 10 μM
Method: (§3) Non-specific binding was defined as radioactivity remaining in the presence of 10 μM of non-radioactive GTPγS and subtracted from total binding to determine specific [^35S]GTPγS binding. All binding reactions were conducted in triplicate, in a final volume of 1 mL, and, following mixing, were incubated for 30 min at 30 °C. After incubation, reactions were terminated by rapid vacuum filtration through Whatman GF/B glass fiber filters (Brandel; Gaithersburg, MD, USA), followed by three washes of 4 mls of ice-cold filtration buffer (50 mM Tris, pH 7.4, and 0.05% bovine serum albumin). Samples were punched out from filter papers into scintillation vials, to which 4 mls of ScintiverseTM-BDR cocktail scintillation fluid (Fisher Scientific; Hampton, NH, USA) was added. Filters were incubated at room temperature for 24 h in scintillation fluid, vortexed, and radioactivity (measured as DPMs) was determined via a liquid scintillation spectrophotometer (Tri Carb 2100 TR Liquid Scintillation Analyzer, Packard Instruments, Meriden, CT, USA).

[4] = test system: CBRs expressed in PC-3 membranes; experiment: [^35S]GTPγS binding, PC-3 membranes; type: biochemical, human; conditions: 10 μM
Method: as §3, with “[^35S]GTPγS binding experiments were conducted to examine G protein modulation by cannabinoids in prostate cancer cell lines DU-145 and PC-3, as detailed previously. Briefly, CHO-hCB2 (50 μg), PC3 (100 μg), or DU-145 (100 μg) membrane homogenates were incubated with a single receptor-saturating concentration (10^−5 M) of cannabinoid ligands to be examined and 0.1 nM [^35S]GTPγS in incubation buffer (20 mM HEPES buffer, pH 7.4, 10 μM GDP, 100 mM NaCl, 0.1% bovine serum albumin, and 10 mM MgCl2). Non-specific” for “Non-specific”

[5] = test system: CBRs expressed in DU-145 cells; type: cell-based, human
Method: (§4) These studies were conducted to determine the effect of chronic exposure of PC-3 and DU-145 cells to cannabinoid ligands with high affinity for non-canonical CBRs on receptor expression. PC-3 or DU-145 cells were seeded into T25 flasks at a density of 1.6 × 10^6 cells in normal medium and cultured at 37 °C with 5% CO2 for 24 h. Following overnight seeding, culture media was aspirated and replaced with serum-free medium containing vehicle or a receptor-saturating concentration (10 μM) of each cannabinoid ligand to be tested. Cells were subsequently cultured at 37 °C with 5% CO2 for an additional 48 h. […] Cells were then centrifuged at 1200 rpm for 10 min, and pellets were stored in −80 °C until future use.
(§5) All binding reactions were conducted in triplicate, in a final volume of 1 mL, and following mixing were incubated for 20 min in a 37 °C water bath to achieve equilibrium. After incubation, reactions were terminated by rapid vacuum filtration through Whatman GF/B glass fiber filters (Brandel; Gaithersburg, MD, USA), followed by three washes of 4 mls of ice-cold filtration buffer (50 mM Tris, pH 7.4, and 0.05% bovine serum albumin). Samples were punched out from filter papers into scintillation vials, to which 4 mls of ScintiverseTM-BDR cocktail scintillation fluid (Fisher Scientific; Hampton, NH, USA) was added. Filters were incubated at room temperature for 24 h in scintillation fluid, vortexed, and radioactivity (measured as DPMs) was quantified via a liquid scintillation spectrophotometer (Tri Carb 2100 TR Liquid Scintillation Analyzer, Packard Instruments, Meriden, CT, USA).

[6] = test system: CBRs expressed in PC-3 cells; type: cell-based, human
Method: as §4, §5

[7] = 1 μM ligand, 1 nM radioligand, PC-3 membranes

Structure (SMILES) | displacement of [^3H]WIN-55,212-2 [1] | displacement of [^3H]WIN-55,212-2 [2] | modulation of [^35S]GTPγS binding [3] | modulation of [^35S]GTPγS binding [4] | CBR downregulation (reduction of [^3H]WIN-55,212-2 (1 nM) binding) [5] | CBR downregulation (reduction of [^3H]WIN-55,212-2 (1 nM) binding) [6] | displacement of [^3H]WIN-55,212-2 ([1]; 1 μM ligand, 1 nM radioligand, DU-145 membranes) | displacement of [^3H]WIN-55,212-2 [2, 7] | decrease in [^35S]GTPγS binding below basal levels [3] | CBR downregulation (reduction of [^3H]WIN-55,212-2 (1 nM) binding) ([5]; DU-145 cells, 10 μM, 48 h, vs vehicle) | CBR downregulation (reduction of [^3H]WIN-55,212-2 (1 nM) binding) ([6]; PC-3 cells, 10 μM, 48 h, vs vehicle)
COc1ccc2c(c1)c(CCN1CCOCC1)c(C)n2C(=O)c1cccc(Cl)c1Cl [GW-405833] | greater than 50% | greater than 50% | neither the agonist at canonical CB1/CB2 receptors WIN-55-212-2 (10 μM) nor the CB2-selective agonist GW-405-833 (10 μM) increased [^35S]GTPγS binding | neither the agonist at canonical CB1/CB2 receptors WIN-55-212-2 (10 μM) nor the CB2-selective agonist GW-405-833 (10 μM) increased [^35S]GTPγS binding | 55 ± 12.5% | 68.33 ± 3.8% | – | – | – | – | –
Cc1c(C(=O)c2cccc3ccccc23)c2cccc3c2n1[C@H](CN1CCOCC1)CO3 [WIN-55,212-2] | – | – | neither the agonist at canonical CB1/CB2 receptors WIN-55-212-2 (10 μM) nor the CB2-selective agonist GW-405-833 (10 μM) increased [^35S]GTPγS binding | neither the agonist at canonical CB1/CB2 receptors WIN-55-212-2 (10 μM) nor the CB2-selective agonist GW-405-833 (10 μM) increased [^35S]GTPγS binding | – | – | significantly displaced; also recorded: complete displacement | significantly displaced; also recorded: complete displacement | 15.3 ± 1.6% | 88.45 ± 5.22% | 84.33 ± 5.2%
Cc1c(C(=O)NN2CCCCC2)nn(-c2ccc(Cl)cc2Cl)c1-c1ccc(Cl)cc1 [rimonabant] | greater than 50% | – | did reduce [^35S]GTPγS binding below basal levels | did reduce [^35S]GTPγS binding below basal levels | 63.75 ± 15.5% | non-significant trend towards decreased receptor expression | – | greater than 50% | – | – | –
